From patent US11026945B2, “Protein kinase RNA-like endoplasmic reticulum kinase (PERK) inhibitors for prevention and/or treatment of lung injury and/or inflammation” (THE TRUSTEES OF THE UNIVERSITY OF PENNSYLVANIA, priority 2016, dated 2021) come the findings set out here.

The subject of experiment [1] is integrated stress response (ISR) signaling (p-PERK, p-EIF2α, ATF4, CHOP). The experiment in a line: Western blot of ISR signaling in stretched AEC-I monolayers. The format is cell-based, rat. An excerpt:
To obtain monolayer rat type-II alveolar epithelial cells (AEC-II), cells were isolated from Sprague-Dawley rats (250-300 g, N=30 purchased from Charles River Laboratories, Wilmington, Mass.) described by Tschumperlin D J, Margulies SS. Equibiaxial deformation-induced injury of alveolar epithelial cells in vitro. Am J Physiol. 1998; 275(6 Pt 1):L1173-83. Epub 1998/12/09 (PubMed PMID: 9843855), with modifications. Briefly, animals were killed and the lungs were harvested. The lung tissue was digested with elastase at 37° C. and distal airways were isolated. Following, cells were placed on rat IgG coated containing no serum for 90 minutes to eliminate contaminating leukocytes and parenchymal cells. This isolation method yielded approximately 95% pure alveolar epithelial cell population. 1.3 million cells were plated on 1 cm diameter fibronectin-coated custom made silastic membranes. In permeability studies, biotin were mixed with fibronectin and membranes were pretreated with oxygen plasma coating to ensure homogenous distribution of the fibronectin. Cells were cultured with 10% fetal bovine serum (FBS)-containing Minimal Essential Medium (MEM) containing low dose antibiotics for 3 days. 32 to 40 monolayers were per rat. […] RNAiMax transfection reagent treatment using serum free media (Opti-MEM, Thermo Fisher Scientific, Waltham, Mass.). This is a negative control for siRNA experiments where serum free media is used for improved transfection efficiency; • B. non-targeting siRNA treatment ([…], Dharmacon) serves a negative control for transfection; • C. 0.5 μg siRNA treatment targeting PERK; • D. 0.5 μg siRNA treatment targeting ATF4; • E. 0.5 μg siRNA treatment targeting CHOP; • F. vehicle control (DMSO) for PI; and • G. 1 μM PI treatment.
The dose of siRNA and PI treatment was selected based on dose-response curves above (FIG. 2A-FIG. 2E). AEC-II transformed to AEC-I cells and formed a complete monolayer by day 4, expressing only AEC-I cell surface markers. On the day of the experiment, the medium was removed and replaced with HEPES-buffered MEM. Cells stretch was performed in a 37° C. incubator. The effect of ISR inhibition or control treatment was compared in the following three conditions (N=5 biological replicates/condition): 1) no stretch (NS) controls; 2) mechanical stretch with 12% surface change (S 12%); and 3) mechanical stretch with 25% surface change (S25%). The cell monolayers were exposed to the above mentioned conditions for 6 hours based on time course of ISR protein expression obtained during preliminary data collection (FIG. 2A-FIG. 2E). All membranes were treated with FITC-labeled streptavidin (Thermo Fisher Scientific) at the end of the experiment and light emission was detected at 488 nm with fluorescent microscopy (Nikon TE300, Melville, N.Y.). In a separate set of experiments (N=30 rats), in which the above mentioned treatment plan and conditions were used, cells were harvested at the end of the experiment by scraping them in RIPA buffer and total protein was extracted (N=3 membranes/treatment group performed for N=5 biological replicates per condition). Co-immunoprecipitation (IP) assays were performed using 5 μg of ZO-1 protein as bait (IP kit, Thermo Fisher Scientific). Following co-IP, immunoblotting was performed for ZO-1, OCLN and CLDN proteins 4, 7 and 18 (Invitrogen, Carlsbad, Calif.).
Rats (N=106) were euthanized with an overdose of sodium pentobarbital (55 mg/kg). The chest was shaved and cleaned with Wexcide. Tracheostomy was performed, and a 14 gauge (G) metal cannula was inserted in the trachea lumen. The animals were connected to a rodent ventilator (Harvard Apparatus Model 640, Holliston, Mass.). Subsequently, the chest and abdomen were opened by a midline incision, and the aorta was transected causing exsanguination. […]
On the technique in general: Immunoblotting shows a protein as a band on a membrane.

A further experiment concerns AEC-I monolayers. The experiment in a line: Stretch-induced cell death, ethidium homodimer staining. The format is cell-based, rat. Conditions: stretched monolayers, 1 μM PI pretreatment. From the text:
To assess the effect of ISR inhibition on stretch-induced cell death, dead to live cell ratio was quantified with triple Ethidium homodimer (dead cells)-Calcinein (live cells) and nuclear (DAPI) stain (Thermo Fisher Scientific). Fluorescent light emission from cells was captured with fluorescent microscopy and quantified in the same fashion as described in the “Mechanical stretch activates ISR and cell death in AEC-I” section. N=30 rats were used to obtain data from N=5 biological replicates/condition for each treatment group. Data was expressed as the number of dead cells per total cells as depicted in FIG. 3G. […]
To measure permeability, the silastic membranes were coated with biotinylated fibronectin and cells were cultured on the apical surface. […] Light emission at 488 nm was measured for monolayers using fluorescent microscopy (Nikon TE300, Melville, N.Y.). […] The emitted fluorescence is proportional to the monolayer damage caused by stretch and is detectable by fluorescent microscopy. […] The maximum pixel intensity in the background of unstretched-untreated monolayers was measured and used as a threshold to exclude unstained regions. The percentage of each image area above the threshold intensity was determined and then divided by the value for the unstretched control group to calculate the normalized area percentage (nArea) of each image. […] Data were expressed as ±SEM. […]

Where [2] appears, read: stretched AEC-I monolayers, 1 μM PI, 24 hours pretreatment.
The mark [3] stands for this setting: unstretched monolayers, 1 μM PI for 18 hours.

For `Cn1cc(-c2ccc3c(c2)CCN3C(=O)Cc2cccc(C(F)(F)F)c2)c2c(N)ncnc21` [PI, 1-[5-(4-Amino-7-methyl-7H-pyrrolo[2,3-d]pyrimidin-5-yl)indolin-1-yl]-2-(3-trifluoromethylphenyl)ethanone], in experiment [1] (setting [2]), the ATF4 entry is “decreased”, the CHOP entry is recorded as “decreased”, the p-EIF2α result is “decreased” and the p-PERK result is “decreased”. Moreover, in experiment [1] (setting [3]), the “Level of ATF4” value is listed as “unaffected”, the “Level of CHOP” value is reported as “unaffected”, the “Level of p-EIF2α” value was “unaffected” and the “Level of p-PERK” value is recorded as “unaffected”. Moreover, the stretch-induced cell death entry with AEC-I monolayers is “decreased”.
